Assay type in all cases: in vivo, Wistar rats
The subject of assay [1] is apomorphine-dependent erection. As to the kind of experiment: Apomorphine-dependent erection in low-potency rats. As to conditions: compound 5 x 10 mg/kg intraperitoneally every 48 hours + apomorphine 0.1 mg/kg subcutaneously; 20 minutes monitoring; one value for the two compounds of the line. From the text:
One of the mechanisms regulating the sexual function of mammals is associated with functioning of the dopaminergic system of the brain. It is well known that a non-selective D1/D2 agonist apomorphine in low doses causes penile erection in rodents (Giuliano F., Allard J. Dopamine and male sexual function. Eur. Urol., 2001, 40 (6), 601-608; Giuliano F., Allard J., Rampin O. et. al. Pro-erectile effect of systemic apomorphine: existence of a spinal site action. J. Urol., 2002, 167 (1), 402-406; Brien S. E., Smallegange C., Gofton W. T., et. al. Development of a rat model of sexual performance anxiety: effect of behavioral and pharmacological hyperadrenergic stimulation on apomorphine-induced erections. Int. J. Impot. Res., 2002, 14 (2), 107-115.). In this connection, we have studied the effects of the compounds according to the invention on apomorphine-dependent erection in rats.
Nine groups of adult male Wistar rats weighing 350-450 g maintained at the normal (not inverted) light cycle were used in the experiments. To study the effect of the compounds on the sexual function, low-potency animals with a single erection were selected. Control group No. 1 (n=7) was composed of animals not injected with the compounds according to the invention. The animals of groups Nos. 2-9 (n=7) were injected with one of the compounds according to the invention selected from the group of compounds 2, 8, 9, 15, 19, 25, 31, 36, intraperitoneally in a course of 5 injections at a dose of 10 mg/kg with an interval between the injections 48 hours. Apomorphine was dissolved in 0.1% aqueous solution of ascorbic acid and then was injected to all animal subcutaneously at a dose of 0.1 mg/kg during 24-28 hours after the last injection of the compounds according to the invention. The monitoring of sexual activity was made individually for each animal immediately after the administration of apomorphine; the monitoring time was 20 minutes. The following indices were registered: the time of beginning of the first erection, time intervals between the erections, the number of erections for the entire period of observation.
The statistical analysis of the results was made using T-test and ξ-square test. The results are given in Table 3 as means±standard error of means.

In assay [2] the test system is nitrites and nitrates (NOx-). The assay can be described thus: Measurement of nitrates/nitrites (NOx-) in brain regions after the morphine abstinence experiment. As to conditions: 3 x 20 mg/kg intramuscularly. The method, boiled down:
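Rat brain regions homogenized in 20 mM HEPES pH 7.5 at 4 °C; deproteinized supernatants treated with nitrate reductase, 25 μM NADPH, 25 μM FAD (37 °C, 30 min), then DAN in acid; naphthotriazole fluorescence (ex 365/em 405 nm) against sodium nitrate standard, expressed as nmol/mg protein (Bradford).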

Assay [3] concerns physical dependence from morphine (morphine abstinence). The assay can be described thus: Morphine abstinence syndrome, signs scored in the open field test. As to conditions: Morphine − (morphine + compound); compound 3 x 20 mg/kg intramuscularly; one value for the three compounds.
The test system of assay [4] is nitric oxide synthase (NOS). The assay can be described thus: Nitric oxide synthase activity in brain regions, radiometric [3H]L-citrulline method. As to conditions: 3 x 20 mg/kg intramuscularly. The method, boiled down:
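Rat cortex, hippocampus, mesencephalon, striatum, brainstem, hypothalamus and cerebellum were homogenized in 20 mM HEPES pH 7.5, and the 11000 g supernatant was incubated 15-60 min at 37 °C with [3H]L-arginine, 0.2 mM CaCl2, FAD, FMN, NADPH and BH4. [3H]L-citrulline was counted after Dowex removal of arginine. Ca2+-dependent/independent activity was split using EDTA ± L-NAME, per mg Bradford protein.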

The mark [5] stands for this setting: Groups Nos. 3-14, compound without morphine, one value for all 12 compounds.
[6] abbreviates: Morphine + compound, one value for the three compounds.

With `Nc1ccnc2c(=O)n([C@@H]3O[C@H](CO)[C@@H](O)[C@H]3O)[nH]c(=O)c12.[Na]` [Compound 2, sodium salt of 4-amino-7-(β-D-ribofuranosile)pyrido[2,3-d]-6H-pyridazine-5,8-dione], in assay [1], the “Latent period of first erection” value stood at 5.21 ± 0.30 min; the “Number of erection for the entire period of observation” value (“Number of erection” below) stood at 3.13 ± 0.35; the “Time between 1st and 2nd erections” value is 3.94 ± 0.60 min; the “Time between 3rd and 2nd erections” value was found to be 5.52 ± 1.14 min.
`O=c1[nH]n([C@@H]2O[C@H](CO)[C@@H](O)[C@H]2O)c(=O)c2nccnc12.[Na]` [Compound 19, sodium salt of 7-(β-D-ribofuranosile)pyrazino[2,3-d]-6H-pyridazine-5,8-dione]: in assay [1], the “Latent period of first erection” value stood at 5.24 ± 0.19 min; the “Number of erection” value is given as 3.29 ± 0.27; the “Time between 1st and 2nd erections” value is 3.75 ± 0.64 min; the “Time between 3rd and 2nd erections” value worked out at 5.12 ± 0.87 min.
Consider `O=c1[nH][nH]c(=O)c2ncccc12.[K]` [Compound 8, potassium salt of pyrido [2,3-d]-6H-pyridazine-5,8-dione], for which, in assay [1], the “Latent period of first erection” value was determined as 5.21 ± 0.30 min; the “Number of erection” value is on record as 3.13 ± 0.35; the “Time between 1st and 2nd erections” value stood at 3.94 ± 0.60 min; the “Time between 3rd and 2nd erections” value came to 5.52 ± 1.14 min.
`Nc1cccc2c(=O)[nH][nH]c(=O)c12.[Na]` [Compound 15, sodium salt of 5-amino-benzo[d]-3H-pyridazine-1,4-dione]: in assay [1], the “Latent period of first erection” value was found to be 5.09 ± 0.27 min; the “Number of erection” value was found to be 3.24 ± 0.39; the “Time between 1st and 2nd erections” value turned out to be 3.87 ± 0.59 min; the “Time between 3rd and 2nd erections” value is 5.19 ± 0.78 min.
For `Nc1ncc2c(=O)[nH][nH]c(=O)c2n1.[Na]` [Compound 36, sodium salt of 2-amino-pyrimido[4,5-d]-6H-pyridazine-5,8-dione] the same measures were 5.12 ± 0.24 min, 3.32 ± 0.31, 3.34 ± 0.69 min and 5.02 ± 1.01 min.
Regarding `O=c1[nH][nH]c(=O)c2nccnc12.[Li]` [Compound 25, lithium salt of pyrazino[2,3-d]-6H-pyridazine-5,8-dione], in assay [1], the “Latent period of first erection” value was found to be 5.24 ± 0.19 min; the “Number of erection” value was found to be 3.29 ± 0.27; the “Time between 1st and 2nd erections” value was found to be 3.75 ± 0.64 min; the “Time between 3rd and 2nd erections” value is 5.12 ± 0.87 min.
Consider `O=c1[nH]n([C@@H]2O[C@H](CO)[C@@H](O)[C@H]2O)c(=O)c2ccccc12.[Na]` [Compound 9, sodium salt of 2-(β-D-ribofuranosile)benzo[d]-3H-pyridazine-1,4-dione], for which, in assay [1], the “Latent period of first erection” value turned out to be 5.09 ± 0.27 min; the “Number of erection” value was 3.24 ± 0.39; the “Time between 1st and 2nd erections” value was 3.87 ± 0.59 min; the “Time between 3rd and 2nd erections” value came out at 5.19 ± 0.78 min.
In the case of `Nc1cccc2c(=O)n([C@@H]3O[C@H](CO)[C@@H](O)[C@H]3O)[nH]c(=O)c12.[Na]` [Compound 10, sodium salt of 5-amino-2-(β-D-ribofuranosile)benzo[d]-3H-pyridazine-1,4-dione], in assay [2] (setting [5]), the “Nitrites, brainstem” value is reported as 6.31 ± 0.58 nmol/mg of protein; the “Nitrites, cerebellum” value is 6.66 ± 0.63 nmol/mg of protein; the “Nitrites, cerebral cortex” value is listed as 4.31 ± 0.37 nmol/mg of protein; the “Nitrites, hippocampus” value is recorded as 6.47 ± 0.72 nmol/mg of protein. Further, in assay [2] (setting [5]), the “Nitrites, hypothalamus” value is on record as 6.77 ± 0.83 nmol/mg of protein; the “Nitrites, midbrain” value is listed as 6.65 ± 0.70 nmol/mg of protein; the “Nitrites, striatum” value is recorded as 6.11 ± 0.29 nmol/mg of protein. In assay [2] (setting [6]), the “Nitrites, brainstem” value is given as 6.99 ± 0.82 nmol/mg of protein; the “Nitrites, cerebellum” value is recorded as 5.85 ± 0.47 nmol/mg of protein; the “Nitrites, cerebral cortex” value is on record as 4.93 ± 0.39 nmol/mg of protein; the “Nitrites, hippocampus” value is reported as 5.24 ± 0.49 nmol/mg of protein. In assay [2] (setting [6]), the “Nitrites, hypothalamus” value is on record as 6.91 ± 0.58 nmol/mg of protein; the “Nitrites, midbrain” value is given as 5.75 ± 0.39 nmol/mg of protein; the “Nitrites, striatum” value is 3.57 ± 0.42 nmol/mg of protein. In addition, in assay [3], the “Authentic differences (ξ-square criterion) in appearance of signs of abstinence: <<Wet dog>> shakes” value came to 0.7562, the “Authentic differences (ξ-square criterion) in appearance of signs of abstinence: Aggression” value is 0.8456, the “Authentic differences (ξ-square criterion) in appearance of signs of abstinence: Convulsions” value was 0.7546 and the “Authentic differences (ξ-square criterion) in appearance of signs of abstinence: Diarrhea” value turned out to be 0.0032. Besides, in assay [3], the “Authentic differences (ξ-square criterion) in appearance of signs of abstinence: Dyspnea” value turned out to be 0.0834, the “Authentic differences (ξ-square criterion) in appearance of signs of abstinence: Forelimb jogging” value is reported as 0.8217, the “Authentic differences (ξ-square criterion) in appearance of signs of abstinence: Grit with teeth” value stood at 0.8652 and the “Authentic differences (ξ-square criterion) in appearance of signs of abstinence: Mastication” value came out at 0.1032. Further, in assay [3], the “Authentic differences (ξ-square criterion) in appearance of signs of abstinence: Piloerection” value is on record as 0.2567, the “Authentic differences (ξ-square criterion) in appearance of signs of abstinence: Ptosis” value amounted to 0.0320, the “Authentic differences (ξ-square criterion) in appearance of signs of abstinence: Rhinorrhea” value came to 0.4032 and the “Authentic differences (ξ-square criterion) in appearance of signs of abstinence: Squeak when touched” value is on record as 0.1342. Further, in assay [4] (setting [5]), the “Activity of NOS, hippocampus” value is given as 3.09 ± 0.16 nmol/min/mg of protein; the “Activity of NOS, hypothalamus” value is 5.45 ± 0.24 nmol/min/mg of protein; the “Activity of NOS, midbrain” value is reported as 2.60 ± 0.29 nmol/min/mg of protein; the “Activity of NOS, striatum” value is 1.26 ± 0.08 nmol/min/mg of protein. In addition, in assay [4] (setting [6]), the “Activity of NOS, hippocampus” value is 2.51 ± 0.19 nmol/min/mg of protein; the “Activity of NOS, hypothalamus” value is reported as 5.36 ± 0.33 nmol/min/mg of protein; the “Activity of NOS, midbrain” value is given as 1.99 ± 0.29 nmol/min/mg of protein; the “Activity of NOS, striatum” value is on record as 1.29 ± 0.09 nmol/min/mg of protein.
In the case of `Nc1ncnc2c(=O)n([C@@H]3O[C@H](CO)[C@@H](O)[C@H]3O)[nH]c(=O)c12.[Na]` [Compound 31, sodium salt of 4-amino-7-(β-D-ribofuranosile)pyrimido[4,5-d]-6H-pyridazine-5,8-dione], in assay [1], the “Latent period of first erection” value was determined as 5.12 ± 0.24 min; the “Number of erection” value is reported as 3.32 ± 0.31; the “Time between 1st and 2nd erections” value came to 3.34 ± 0.69 min; the “Time between 3rd and 2nd erections” value amounted to 5.02 ± 1.01 min.

Source of the values: patent US7776833B2, “Use of cyclic bioisosters of purine system derivatives for treating diseases produced by disorders of niterergic and dopaminergic systems” (priority 2003, dated 2010).
